According to article PMC11160566 (ACS infectious diseases, 2024):

Columns and labels:
GES-5 carbapenemase [1] = target: T1, GES-5 carbapenemase (Klebsiella pneumoniae, UniProt Q09HD0); assay: X-ray crystal structure of acyl-enzyme; assay type: binding
GES-5 carbapenemase [2] = target: T1, GES-5 carbapenemase; assay: reporter substrate hydrolysis, absorbance at […] nm; assay type: biochemical

T1 sequence (Q09HD0 19-287): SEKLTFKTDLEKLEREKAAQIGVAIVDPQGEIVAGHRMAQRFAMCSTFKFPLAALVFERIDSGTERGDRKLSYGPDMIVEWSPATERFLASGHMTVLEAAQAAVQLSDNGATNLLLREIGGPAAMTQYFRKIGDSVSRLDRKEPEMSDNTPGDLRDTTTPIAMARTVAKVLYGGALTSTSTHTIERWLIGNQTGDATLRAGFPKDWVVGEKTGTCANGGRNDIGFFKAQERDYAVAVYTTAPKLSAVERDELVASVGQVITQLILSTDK

Compound | X-ray crystal structure of acyl-enzyme (1.62 Å) (GES-5 carbapenemase [1]) | reporter substrate hydrolysis, absorbance at 500 nm (GES-5 carbapenemase [2])
C[C@@H](O)[C@H]1C(=O)N2C(C(=O)O)=C(S[C@@H]3CN[C@H](C(=O)N(C)C)C3)[C@H](C)[C@H]12 [MEM, meropenem] | The 3D structures of the acyl-enzyme complexes of GES-5-meropenem and GES-5-NA-1-157 were determined by X-ray crystallography | –
O=C(Cc1cccs1)N[C@@H]1C(=O)N2C(C(=O)O)=C(/C=C/c3ccc([N+](=O)[O-])cc3[N+](=O)[O-])CS[C@H]12 [nitrocefin] | – | The progress curves for nitrocefin hydrolysis by GES-5 in the presence of NA-1-157
